Source: US12509431B2, “1,4-dihydroquinazolinone compounds and uses thereof” (Edgewise Therapeutics, Inc., priority 2022, dated 2025)

What was measured:
Format in all cases: biochemical
[1] = molecular target: T1, Porcine Ventricle myofibrils (left ventricle of Yucatan minipigs) (Sus scrofa, UniProt P79293); test: Myofibril ATPase assay (PK/LDH NADH-coupled), ventricle myofibrils
T1 construct: Myofibrils from porcine cardiac muscle was isolated from the left ventricle of Yucatan minipigs; tissue Exemplar Genetics; host or cells: left ventricle of Yucatan minipigs
How it was run: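 Yucatan minipig left-ventricle myofibrils; ATPase measured by PK/LDH-coupled NADH loss at 340 nm, read every 1.5-2 min for 75 min. Slopes normalized to vehicle (100%) and fit to 4-parameter logistic model; EC25 and, for inhibitors, EC50 calculated.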

Porcine Atria myofibrils = test: Myofibril ATPase assay (PK/LDH NADH-coupled), atria myofibrils
How it was run: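 Porcine atrial myofibril ATPase followed via PK/LDH-coupled NADH depletion, absorbance at 340 nm read every 1.5-2 min over 75 min. Slopes (mAU/min) normalized to vehicle as 100% and fit to a 4-parameter logistic; EC25% derived, plus EC50% for inhibitors.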

[2] = tested on: Rabbit Skeletal myofibrils (rabbit psoas muscle); test: Myofibril ATPase assay (PK/LDH NADH-coupled), skeletal myofibrils
How it was run: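 Rabbit psoas myofibrils in pCa (PIPES/CaCl2/EGTA, pH 7.0) buffer; ADP coupled via PK/LDH to NADH loss, read at 340 nm every 1.5–2 min for 75 min. Slopes normalized to vehicle (100%) and fit to 4-parameter logistic for EC25, plus EC50 for inhibitors.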

T1 sequence (P79293 whole entry): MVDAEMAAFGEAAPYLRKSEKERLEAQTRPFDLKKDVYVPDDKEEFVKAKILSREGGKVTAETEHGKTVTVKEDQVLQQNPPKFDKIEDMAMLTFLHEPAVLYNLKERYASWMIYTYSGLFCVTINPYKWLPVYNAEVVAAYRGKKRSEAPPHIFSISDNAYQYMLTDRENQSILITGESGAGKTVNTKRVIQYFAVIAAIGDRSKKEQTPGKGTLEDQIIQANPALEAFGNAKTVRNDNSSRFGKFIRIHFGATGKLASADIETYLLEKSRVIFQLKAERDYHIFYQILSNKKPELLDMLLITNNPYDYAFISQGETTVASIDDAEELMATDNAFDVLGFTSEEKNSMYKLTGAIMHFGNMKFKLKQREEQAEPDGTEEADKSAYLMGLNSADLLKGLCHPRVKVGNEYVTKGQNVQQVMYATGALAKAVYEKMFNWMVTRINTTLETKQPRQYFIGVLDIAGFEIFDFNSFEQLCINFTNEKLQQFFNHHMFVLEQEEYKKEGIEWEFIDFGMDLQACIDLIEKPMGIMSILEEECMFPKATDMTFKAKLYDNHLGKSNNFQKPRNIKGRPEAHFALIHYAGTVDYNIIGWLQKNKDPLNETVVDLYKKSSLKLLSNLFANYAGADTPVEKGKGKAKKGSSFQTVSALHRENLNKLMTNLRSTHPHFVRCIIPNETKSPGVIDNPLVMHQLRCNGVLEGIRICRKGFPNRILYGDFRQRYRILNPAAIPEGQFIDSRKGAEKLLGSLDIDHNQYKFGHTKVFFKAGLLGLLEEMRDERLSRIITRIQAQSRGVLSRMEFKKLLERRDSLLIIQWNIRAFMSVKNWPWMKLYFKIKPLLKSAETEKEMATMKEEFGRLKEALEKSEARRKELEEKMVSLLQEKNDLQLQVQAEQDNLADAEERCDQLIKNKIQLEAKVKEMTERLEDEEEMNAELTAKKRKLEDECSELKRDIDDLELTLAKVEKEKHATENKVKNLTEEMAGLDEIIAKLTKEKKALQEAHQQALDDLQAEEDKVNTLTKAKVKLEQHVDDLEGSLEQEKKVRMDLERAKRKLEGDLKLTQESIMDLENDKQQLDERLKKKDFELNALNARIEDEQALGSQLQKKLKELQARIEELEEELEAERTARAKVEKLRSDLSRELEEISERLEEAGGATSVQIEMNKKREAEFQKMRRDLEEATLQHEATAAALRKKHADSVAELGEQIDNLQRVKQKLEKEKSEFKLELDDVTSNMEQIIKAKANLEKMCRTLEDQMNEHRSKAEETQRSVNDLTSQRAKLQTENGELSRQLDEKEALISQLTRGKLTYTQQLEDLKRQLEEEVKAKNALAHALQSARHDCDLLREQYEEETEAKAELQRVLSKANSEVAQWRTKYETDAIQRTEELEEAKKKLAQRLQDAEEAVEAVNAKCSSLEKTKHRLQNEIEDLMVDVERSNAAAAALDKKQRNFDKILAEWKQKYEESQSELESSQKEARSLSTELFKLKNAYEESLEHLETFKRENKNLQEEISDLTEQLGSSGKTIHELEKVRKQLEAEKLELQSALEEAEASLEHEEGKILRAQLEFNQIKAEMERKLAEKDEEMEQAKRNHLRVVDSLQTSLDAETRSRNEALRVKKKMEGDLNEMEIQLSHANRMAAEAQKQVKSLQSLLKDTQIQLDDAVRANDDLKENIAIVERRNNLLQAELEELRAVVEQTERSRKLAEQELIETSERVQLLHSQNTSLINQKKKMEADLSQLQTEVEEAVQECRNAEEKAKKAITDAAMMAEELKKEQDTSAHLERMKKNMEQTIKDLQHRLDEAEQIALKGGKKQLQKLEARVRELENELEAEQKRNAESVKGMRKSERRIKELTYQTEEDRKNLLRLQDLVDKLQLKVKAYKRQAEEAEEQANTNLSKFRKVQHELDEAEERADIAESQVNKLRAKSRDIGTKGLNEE

Compound | Porcine Ventricle IC25 ([1]; Table 8) | Porcine Atria IC25 (Porcine Atria myofibrils; Table 8) | Rabbit Psoas IC25 ([2]; Table 8) | Porcine Ventricle IC25 ([1]; Table 7) | Porcine Atria IC25 (Porcine Atria myofibrils; Table 7) | Rabbit Psoas IC25 ([2]; Table 7)
C[C@@H](NC(=O)CN1Cc2c(ccc(F)c2F)NC1=O)c1ccc(C#N)cc1F [Compound B188] | 1.834 µM | 0.42 µM | 0.4649 µM | – | – | –
Cc1ncc(F)c([C@H](C)NC(=O)CN2Cc3c(ccc(F)c3F)NC2=O)n1 [Compound B347] | 100.00 µM | 100.00 µM | 100.00 µM | – | – | –
Cc1cccc2c1C1(CC1)N(CC(=O)N[C@H]1COc3cc(C#N)cnc31)C(=O)N2 [Compound B300] | 1.42 µM | 1.42 µM | 1.39 µM | – | – | –
C[C@H](NC(=O)CN1C(=O)Nc2ccc(F)cc2C12CC2)c1ccc(C#N)nn1 [Compound B335] | 100.00 µM | 9.42 µM | 100.00 µM | – | – | –
Cc1cc(F)c2c(c1)NC(=O)N(CC(=O)N[C@@H](C)c1ccc(C#N)cc1F)C2 [Compound B13, N-[(1S)-1-(4-Cyano-2-fluorophenyl)ethyl]-2-(5-fluoro-7-methyl-2-oxo-1,4-dihydroquinazolin-3-yl)acetamide] | 0.086 µM | 0.06 µM | 0.0132 µM | – | – | –
O=C(CN1Cc2cnccc2NC1=O)N[C@H]1COc2cc(F)cc(F)c21 [Compound N11] | – | – | – | 100 µM | 100.00 µM | 100 µM
C[C@@H](NC(=O)CN1Cc2c(ccc(F)c2F)NC1=O)c1ccc2ncccc2n1 [Compound B286] | 8.79 µM | 0.55 µM | 40.68 µM | – | – | –
C[C@@H](NC(=O)CN1Cc2c(C#N)cncc2NC1=O)c1ncc(F)cc1F [Compound N38] | – | – | – | 100 µM | 60.44 µM | 5.343 µM
O=C(CN1C(=O)Nc2cccnc2C12CC2)N[C@H](CO)c1ccc(F)cc1F [Compound N27] | – | – | – | 100 µM | 100.00 µM | 100 µM
O=C(CN1Cc2c(ccnc2Cl)NC1=O)N[C@@H](c1ccc(F)cc1F)C(F)(F)F [Compound N100] | – | – | – | 100 µM | 100.00 µM | 9.48 µM
C[C@H](NC(=O)CN1Cc2c(ccnc2F)NC1=O)c1ccc(F)cc1F [Compound N124] | – | – | – | 0.2452 µM | 0.08 µM | 0.0503 µM
C[C@@H](NC(=O)CN1Cc2c(ccc(F)c2F)NC1=O)c1cc2cccnc2cn1 [Compound B270] | 100.00 µM | 1.18 µM | 100.00 µM | – | – | –
O=C(CN1Cc2cc(F)ccc2NC1=O)N[C@H](CO)c1ccc(F)cc1F [Compound B217] | 0.8987 µM | 0.13 µM | 0.0678 µM | – | – | –
C[C@H](NC(=O)CN1Cc2c(ccc(F)c2F)NC1=O)c1cc2c(cn1)OCCN2 [Compound B365] | 100.00 µM | 100.00 µM | 100.00 µM | – | – | –
C[C@H](NC(=O)[C@@H](Cc1ccccc1)N1Cc2cc(F)ccc2NC1=O)c1ccc(F)cc1F [Compound B220] | 100 µM | 53.57 µM | 47.56 µM | – | – | –
N#Cc1ccc2c(c1)C1(CC1)N(CC(=O)N[C@@H]1COc3cc(F)cc(F)c31)C(=O)N2 [Compound B121] | 0.1665 µM | 0.12 µM | 0.0677 µM | – | – | –
C[C@H](NC(=O)CN1Cc2c(ccc(F)c2F)NC1=O)c1cc2c(cn1)N(C)CCO2 [Compound B361] | 100.00 µM | 100.00 µM | 100.00 µM | – | – | –
Cc1cc(F)cnc1[C@@H](C)NC(=O)CN1Cc2c(ccc(F)c2F)NC1=O [Compound B38] | 3.82 µM | 0.98 µM | 10.64 µM | – | – | –

Compound | Porcine Ventricle IC25 ([1]; Table 8) | Porcine Atria IC25 (Porcine Atria myofibrils; Table 8) | Rabbit Psoas IC25 ([2]; Table 8) | Porcine Ventricle IC25 ([1]; Table 7) | Porcine Atria IC25 (Porcine Atria myofibrils; Table 7) | Rabbit Psoas IC25 ([2]; Table 7)
N#Cc1cc(F)c2c(c1)OC[C@H]2NC(=O)CN1Cc2c(ccc(F)c2C#N)NC1=O [Compound B117] | 1.967 µM | 0.15 µM | 0.2366 µM | – | – | –
C[C@H](C(=O)N[C@@H](CO)c1ccc(F)cc1F)N1Cc2c(Cl)cccc2NC1=O [Compound B214] | 0.2408 µM | 0.07 µM | 0.088 µM | – | – | –
C[C@H](NC(=O)CN1C(=O)Nc2cccnc2C12CC2)c1ccc(C#N)cn1 [Compound N17] | – | – | – | 100 µM | 75.12 µM | 100 µM
O=C(CN1Cc2c(ccc(F)c2F)NC1=O)N[C@@H]1CCc2cc(F)cnc21 [Compound B350] | 0.50 µM | 0.30 µM | 0.62 µM | – | – | –
C[C@@H](NC(=O)CN1Cc2c(ccc(F)c2F)NC1=O)c1ncncc1F [Compound B109] | 100 µM | 12.19 µM | 13.9 µM | – | – | –
C[C@@H](NC(=O)CN1C(=O)Nc2ccc(C#N)nc2C12CC2)c1ncc(C#N)cc1F [Compound N3] | – | – | – | 100 µM | 2.59 µM | 18.85 µM
Cc1ccc([C@@H](C)NC(=O)CN2Cc3cc(F)ccc3NC2=O)c(F)c1 [Compound B209] | 100 µM | 12.15 µM | 100 µM | – | – | –
C[C@@H](C(=O)N[C@@H](CO)c1ncc(F)cc1F)N1Cc2c(Cl)cccc2NC1=O [Compound B169] | 1.354 µM | 0.15 µM | 0.3955 µM | – | – | –
Cc1cc(F)c2c(c1)NC(=O)N(CC(=O)N[C@H](C)c1ccc(C#N)cc1F)C2 [Compound B12] | 0.143 µM | 0.88 µM | 0.7606 µM | – | – | –
C[C@H](C(=O)N[C@@H](CO)c1ncc(F)cc1F)N1Cc2c(Cl)cccc2NC1=O [Compound B170] | 31.8 µM | 2.85 µM | 9.578 µM | – | – | –
Cc1nc([C@H](C)NC(=O)CN2Cc3c(ccc(F)c3F)NC2=O)ncc1C#N [Compound B353] | 2.24 µM | 1.99 µM | 2.49 µM | – | – | –
Cc1ccnnc1C(C)NC(=O)CN1Cc2c(ccc(F)c2F)NC1=O (single isomer, unassigned) [Compound B25] | 2.494 µM | 0.70 µM | 4.823 µM | – | – | –
N#Cc1ccc2c(c1)C1(CC1)N(CC(=O)N[C@H]1COc3cc(F)cc(F)c31)C(=O)N2 [Compound B122] | 100 µM | 1.31 µM | 100 µM | – | – | –
C[C@@H](NC(=O)CN1Cc2c(ccc(F)c2F)NC1=O)c1cnc(C#N)cn1 [Compound B91] | 0.783 µM | 0.14 µM | 0.3913 µM | – | – | –
O=C(CN1C(=O)Nc2cccnc2C12CC2)N[C@H]1COc2cc(F)cc(F)c21 [Compound N34] | – | – | – | 100 µM | 8.44 µM | 1.366 µM
Cc1nnc(C(C)NC(=O)CN2Cc3c(ccc(F)c3F)NC2=O)o1 (stereo not drawn) [Compound B345] | 100.00 µM | 57.06 µM | 100.00 µM | – | – | –
C[C@H](NC(=O)[C@H](C)N1Cc2c(ccnc2Br)NC1=O)c1ccc(F)cc1F [Compound N94] | – | – | – | 0.4952 µM | 0.22 µM | 0.0739 µM
C[C@@H](NC(=O)CN1Cc2c(ccc(F)c2F)NC1=O)c1nnc2c(Cl)cc(C(F)(F)F)cn12 [Compound B97] | 4.796 µM | 1.43 µM | 8.892 µM | – | – | –
